Measurements reported in ChEMBL document CHEMBL4482312, “HTS Assay for Identifying Small Molecule Inhibitors of RAD52 and Uses of Identified Small Molecule Inhibitors for Treatment and Prevention of BRCA-Deficient Malignancies” (2018).
Calls of active or inactive are those of the source. No cut-off for these calls is given here.

Legend:
[1] = target: T1, DNA repair protein RAD52 homolog (Homo sapiens, UniProt P43351); assay: Inhibition of RAD52 (unknown origin) assessed as effect on RAD52-mediated annealing of complementary oligonucleotides using T-28 ssDNA substrate by FRET assay
T1 sequence (P43351 whole entry): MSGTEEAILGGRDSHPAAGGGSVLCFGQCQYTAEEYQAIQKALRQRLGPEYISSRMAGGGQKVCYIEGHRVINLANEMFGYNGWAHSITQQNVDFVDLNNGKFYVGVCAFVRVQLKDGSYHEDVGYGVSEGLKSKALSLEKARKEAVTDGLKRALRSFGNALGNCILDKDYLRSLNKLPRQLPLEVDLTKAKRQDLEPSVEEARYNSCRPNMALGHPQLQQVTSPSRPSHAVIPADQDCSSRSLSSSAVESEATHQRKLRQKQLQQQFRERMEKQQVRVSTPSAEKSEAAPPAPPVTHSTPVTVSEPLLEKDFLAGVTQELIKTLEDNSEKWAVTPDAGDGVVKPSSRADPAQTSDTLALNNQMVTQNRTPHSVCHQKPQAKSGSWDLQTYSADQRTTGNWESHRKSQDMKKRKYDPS

[2] = target: T1, DNA repair protein RAD52 homolog; assay: Inhibition of RAD52 (unknown origin) assessed as reduction in RAD52-ssDNA interaction using Cy3-dT30-Cy5 ssDNA by FRET assay
[3] = Solubility in 30 mM Tris-acetate buffer pH 7.5 in presence of 1 mM DTT at 10 uM; format: physicochemical; details: pH 7.5, 10 µM
[4] = Solubility in 30 mM Tris-acetate buffer pH 7.5 in presence of 1 mM DTT at 115 uM; format: physicochemical; details: pH 7.5, 115 µM
[5] = Solubility in DMSO at 25 mM; format: physicochemical; details: 25000 µM
[6] = target: T2, DNA repair protein RAD52 homolog (Homo sapiens) (UniProt P43351); assay: Inhibition of RAD52 in hTERT-immortalized wild-type human GM01604 fibroblasts with BRCA2 knockdown assessed as potentiation of HU and UCN01-induced cell death by Live/Dead assay
T2 sequence (whole entry): T1 sequence (P43351 whole entry)

[7] = target: T2, DNA repair protein RAD52 homolog (Homo sapiens); assay: Effect on oligomeric ring of RAD52 (unknown origin) by dynamic light scattering assay
[8] = target: T2, DNA repair protein RAD52 homolog (Homo sapiens); assay: Induction of protein aggregation of RAD52 (unknown origin) by dynamic light scattering assay
[9] = target: T2, DNA repair protein RAD52 homolog (Homo sapiens); assay: Inhibition of RAD52 (unknown origin) assessed as reduction in RAD52-ssDNA interaction using Cy3-dT30-Cy5 ssDNA in presence of 0.01% Triton-X100 by FRET assay
[10] = target: T2, DNA repair protein RAD52 homolog (Homo sapiens); assay: Binding affinity to RAD52 (unknown origin) at 20 uM by water-logsy NMR method
Homo sapiens [11] = species on record: Homo sapiens; assay: Binding affinity to RPA (unknown origin) at 20 uM by water-logsy NMR method
Homo sapiens [12] = species on record: Homo sapiens; assay: Binding affinity to RPA (unknown origin) assessed as effect on RPA-ssDNA interaction at 20 uM by water-logsy NMR method
Homo sapiens [13] = species on record: Homo sapiens; assay: Inhibition of RAD52 (unknown origin) interaction with RPA (unknown origin)
[14] = target: T2, DNA repair protein RAD52 homolog (Homo sapiens); assay: Inhibition of RAD52 in checkpoint deficient HU-treated in hTERT-immortalized wild-type human GM01604 fibroblasts assessed as decrease in MUS81/EME1/RAD52-dependent DSB formation by measuring mean tail moment in presence of […] by neutral comet assay
[15] = target: T2, DNA repair protein RAD52 homolog (Homo sapiens); assay: Inhibition of RAD52 in checkpoint deficient HU-treated in hTERT-immortalized wild-type human GM01604 fibroblasts assessed as inhibiting RAD52-MUS81-dependent DSBs at stalled replication forks in presence of […] by neutral comet assay
[16] = target: T2, DNA repair protein RAD52 homolog (Homo sapiens); assay: Inhibition of RAD52 in checkpoint deficient HU-treated in hTERT-immortalized wild-type human GM01604 fibroblasts assessed as decrease in MUS81/EME1/RAD52-dependent DSB formation by measuring mean tail moment at 500 nM in presence of […] by neutral comet assay
[17] = target: T2, DNA repair protein RAD52 homolog (Homo sapiens); assay: Inhibition of RAD52 in checkpoint deficient in hTERT-immortalized wild-type human GM01604 fibroblasts assessed as decrease in MUS81/EME1/RAD52-dependent DSB formation by measuring mean tail moment in presence of […] in presence of RAD52 siRNA by neutral comet assay
Homo sapiens [18] = species on record: Homo sapiens; assay: Induction of anaphase bridge accumulation in checkpoint deficient HU-treated in hTERT-immortalized wild-type human GM01604 cells assessed as decrease in MUS81/EME1/RAD52-dependent DSB formation by measuring mean tail moment in presence of […] by neutral comet assay; format: functional
[19] = target: T2, DNA repair protein RAD52 homolog (Homo sapiens); assay: Inhibition of RAD52 in hTERT-immortalized wild-type human GM01604 fibroblasts with MUS81 knockdown assessed as potentiation of HU and UCN01-induced cell death by Live/Dead assay
[20] = target: T2, DNA repair protein RAD52 homolog (Homo sapiens); assay: Inhibition of RAD52 in hTERT-immortalized wild-type human GM01604 fibroblasts in presence of BRCA2 siRNA NA RAD52 siRNA assessed as potentiation of HU-induced cell death by Live/Dead assay relative to control
[21] = target: T2, DNA repair protein RAD52 homolog (Homo sapiens); assay: Inhibition of RAD52 in hTERT-immortalized wild-type human GM01604 fibroblasts assessed as cell death at 1 uM relative to control; design: scale not given: the % may be the effect or the level left
Homo sapiens [22] = species on record: Homo sapiens; assay: Binding affinity to RPA (unknown origin) at 40 uM by water-logsy NMR method
Homo sapiens [23] = species on record: Homo sapiens; assay: Binding affinity to RPA (unknown origin) assessed as effect on RPA-ssDNA interaction at 40 uM by water-logsy NMR method
[24] = target: T2, DNA repair protein RAD52 homolog (Homo sapiens); assay: Inhibition of RAD52 (unknown origin) assessed as reduction in RAD52-dsDNA interaction by FRET assay
[25] = target: T2, DNA repair protein RAD52 homolog (Homo sapiens); assay: Binding affinity to RAD52 (unknown origin) by water-logsy NMR method
Homo sapiens [26] = species on record: Homo sapiens; assay: Binding affinity to RPA (unknown origin) assessed as effect on RPA-ssDNA interaction by water-logsy NMR method
Homo sapiens [27] = species on record: Homo sapiens; assay: Binding affinity to RPA (unknown origin) by water-logsy NMR method

For Oc1cc(O)c2c(c1)O[C@H](c1ccc(O)c(O)c1)[C@H](O)C2 [(-)-EPICATECHIN], the IC50 [1] was “Not Active”.
With CCOc1cc(C(Nc2cc(C)ccn2)c2ccc3ccc(C)nc3c2O)ccc1OC (stereo not drawn) the IC50 [2] was “Nd(Insoluble)” and the solubility [3] was “Insoluble”.
With O=c1c2ccccc2nc(CSc2[nH]cnc3ncnc2-3)n1-c1cccc(C(F)(F)F)c1 the IC50 [2] was “Nd(Insoluble)” and the solubility [4] was “Insoluble”.
For CN(C)[C@@H]1C(O)=C(C(=O)NCN2CCCC2)C(=O)[C@@]2(O)C(O)=C3C(=O)c4c(O)cccc4[C@@](C)(O)[C@H]3C[C@@H]12 [ROLITETRACYCLINE], the IC50 [1] was “Not Active”.
In the case of COc1cc(N)c(Cl)cc1C(=O)N[C@H]1CCN(CCCOc2ccc(F)cc2)C[C@H]1OC.O, the IC50 [1] is reported as “Not Active”.
With CC(C)(O)C1Cc2cc3ccc(=O)oc3cc2O1 (stereo not drawn) the IC50 [2] was “Not Active”.
With CC1(C)C(=O)C=C[C@@]2(C)C1=C(O)C(=O)[C@]1(C)[C@@H]2CC[C@@]2(C)[C@H](c3ccoc3)C[C@H]3O[C@]321 [CEDRELONE] the IC50 [1] was “Not Active”.
For NCCc1cc(O)c(O)cc1O [OXIDOPAMINE], the IC50 [1] was “Not Active”.
With CCOc1ccccc1NC(=O)c1c(NC(=O)Cc2ccc(OC)cc2)sc2c1CCC2 the IC50 [2] was “Nd(Insoluble)” and the solubility [5] was “Insoluble”.
With Oc1cc(O)c2c(c1)O[C@H](c1cc(O)c(O)c(O)c1)[C@H](O)C2 the inhibition [6] was “Active”, the Activity [7] was “inactive” and the Activity [8] was “inactive”. The inhibition [9] was “Active”, the Activity [10] was “Active” and the Activity (Homo sapiens [11]) was “inactive”. The Activity (Homo sapiens [12]) was “inactive”, the inhibition (Homo sapiens [13]) was “inactive” and the inhibition [14] was “Dose-dependent effect”. The inhibition [15] was “Active”, the inhibition [16] was “Active” and the inhibition [17] was “Active”. For the same compound, the Activity (Homo sapiens [18]) was “inactive”, the inhibition [19] was “Active” and the inhibition [20] was “Active”. It also gave an Activity [21] of 40%.
For O=C(O[C@@H]1Cc2c(O)cc(O)cc2O[C@@H]1c1cc(O)c(O)c(O)c1)c1cc(O)c(O)c(O)c1, the Activity [7] was “inactive”, the Activity [8] was “inactive” and the inhibition [9] was “Active”. The Activity (Homo sapiens [22]) was “Active”, the Activity (Homo sapiens [23]) was “inactive” and the inhibition (Homo sapiens [13]) was “inactive”. For the same compound, the inhibition [14] was “Dose-dependent effect”, the inhibition [15] was “Active” and the inhibition [16] was “Active”. For the same compound, the inhibition [17] was “Active” and the Activity (Homo sapiens [18]) was “inactive”.
With O=C(O[C@@H]1O[C@@H]2COC(=O)c3cc(O)c(O)c(O)c3-c3c(cc(O)c(O)c3O)C(=O)O[C@H]([C@H]1O)[C@@H]2O)c1cc(O)c(O)c(O)c1 the inhibition [24] was “inactive”, the Activity [25] was “Active” and the Activity (Homo sapiens [26]) was “inactive”. For the same compound, the Activity (Homo sapiens [27]) was “Active”.
